Experimental data: US5688773A, “Method of selectively destroying neoplastic cells” (priority 1994, dated 1997)

Experiments:
[1] = test system: C6VIKWT cells; conditions: colony survival; drug from day 7 for 9-12 days
Experimental: To measure the ganciclovir sensitivity of colony formation, cells were plated in duplicate at a density of 500 cells per 25 cm^2 culture flask. Seven days later, ganciclovir was added at various concentrations (0, 0.1, 0.5, 1, 10, 50, 100, 300 μM) in quadruplicate and incubation was for 9-12 days, with medium changes every 3-5 days. Cells were then fixed with 100% methanol, and stained with Giemsa (Freshney, R. I., "Culture of Animal Cells," in: A Manual of Basic Techniques, 2d ed., New York, Alan R. Liss, Inc., pp. 170-171 (1987)), and colonies ≥2 mm in diameter were counted.

[2] = test system: C6BAG cells alone; test: GCV treatment of subcutaneous tumors; type: in vivo, nude mice; conditions: subcutaneous inoculation
[3] = test system: C6BAG and C6VIKWT cells; test: Ganciclovir treatment of combined subcutaneous tumors; type: in vivo, nude mice
Experimental: Sequential injections of 10^5 C6BAG cells followed immediately by 10^6 C6BU1 cells, C6VIK cells, or C6VIKWT cells at the same injection site, were carried out as above using 20 animals for each combination. […] Tumor volume was assessed as the percentage increase over the volume at the beginning of treatment through 17 days.

[4] = test system: C6-P450 cells; test: Trypsinization and replating assay; type: cell-based, rat; conditions: for Cell number: replated, counted nine days later
Experimental: (§1) Trypsinization and replating assay: To determine the temporal kinetics of CPA-mediated cytotoxicity, 2×10^6 cells were plated onto each 10 cm dish. Twenty-four hours later, 0.5 mM CPA was added and cells were incubated for the times indicated in each figure. Cells were then trypsinized and replated at a density of 2×10^5 cells/10 cm dish. Nine days later, cell numbers were evaluated by Coulter counting.

[5] = test system: C6 cells; test: Trypsinization and replating assay; type: cell-based, rat; conditions: for Cell number: replated, counted nine days later
Experimental: as §1

[6] = test system: C6 cells co-cultured with irradiated C6-P450 cells; test: Co-culture assay with irradiated cells; type: cell-based; conditions: Rattus norvegicus, light or radiation study, 96 h; 10% irradiated C6-P450 cells; 0.5 mM CPA, four days; read-out: decrease in the proliferation of C6 cells
Experimental: Co-culture assay: Co-cultures of C6-P450 and C6 cells were incubated in triplicate at different ratios (where 0, 10, 50, 90, and 100% of the cells were C6-P450 cells) to achieve a total number of 2×10^6 cells/10 cm dish. After 24 hours, 0.5 mM CPA was added and four days later, cells were counted as previously described. To compare the killing achieved by cell contact with that obtained by exposure to conditioned medium, the supernatant from each co-culture was harvested, filtered through 0.45 μm membrane filters, mixed in a 1:1 ratio with 5 mL of fresh medium and added to overnight cultures of C6 cells (2×10^6 cells/10 cm dish in triplicate). Four days later, C6 cells were washed, harvested and counted. To determine the specificity of the cell-mediated killing effect from the co-culture assays, C6 cells were incubated overnight with C6 cells that expressed the neomycin phosphotransferase gene (C6-Neo), with irradiated C6 cells, with irradiated C6-Neo, and with irradiated C6-P450 cells. γ-irradiation was performed by exposing cells to a total of 6000 rads emitted by a ^51 chromium source.

[7] = test system: cytochrome P450 2B1-expressing MCF-7 cell lines P2, P3, P5, P8, P9 and P26; test: Cyclophosphamide sensitivity of MCF-7 cell lines in culture; type: cell-based, human
Experimental: (§2) To test for drug sensitivity, 1×10^5 cells were plated in 30-mm tissue culture plates (Falcon 3046) in duplicate. Drugs were added 18-24 hours after seeding. Cells were allowed to grow for times ranging up to 5 days after drug treatment, and the final cell number was then determined. Cells were rinsed with phosphate buffered saline or Hank's buffered saline, dispersed using trypsin-EDTA (GIBCO/BRL, Inc.), and then counted with a hemocytometer. Results are expressed as a growth ratio, i.e., the number of cells in plates containing drug as a percentage of the corresponding drug-free controls (mean±range of duplicate determinations).
(§3) Transfection of MCF-7 cells with the cytochrome P450 2B1 expression plasmid, selection of neomycin-resistant clones, characterization of the expressed cytochrome P450 2B1 protein, and sensitivity of cell lines to drugs were carried out as described in Example 7 for the 9L cytochrome P450 2B1-expressing cell lines.

[8] = test system: parental MCF-7 cells; test: as above; type: cell-based, human
Experimental: as §2, §3

[9] = test system: MCF-7-Z3 cells; test: as above; type: cell-based, human
Experimental: as §2, §3

[10] = test system: C6-P450 cells; test: Cell proliferation assay
[11] = test system: C450-8 cells; test: cells; conditions: Rattus norvegicus, read-out: CPA concentration reducing the number of cells by 50%
Experimental: Cyclophosphamide Dose-Response Assay: For dose-response curves, cells were plated at a density of 2×10^5 cells/100 mm dish (Corning) in quintuplicate. Two days later CPA was added to final concentrations of 0-100 μM. Five days after plating, the monolayers were rinsed twice with Hank's buffered saline (GIBCO) to remove dead cells. Monolayers were dispersed using trypsin-EDTA (GIBCO), and cell numbers were determined using a Coulter counter (Coulter Electronics Inc.).

[12] = test system: C6 cells exposed to CM from C6; test: C6 colony formation after conditioned medium from drug-exposed cells; type: cell-based, rat; conditions: for Colony numbers: colonies six days later
[13] = Table V panel B, survivors of panel A replated, nine days

Which results are given for `Nc1nc(O)c2ncn(COC(CO)CO)c2n1` [ganciclovir]?
fold more sensitive than parental line C6VIK at 50% surviving colonies [1]: 300 fold; Tumor regression [2]: not with C6BAG cells alone; Tumor size compared to C6BAG and C6BU1 tumors ([3]; 14 day course, 25 mg/kg twice a day intraperitoneally): even greater decrease in the size; Tumor regression ([3]; C6VIK-WT and C6BAG inoculated simultaneously, GCV treatment): regression of tumors in most nude mice

Which “pulse of CPA sufficient to completely inhibit the growth of replated cells” value ([4]; 0.5 mM CPA) does the source give for `O=P1(N(CCCl)CCCl)NCCCO1` (centres unmarked) [cyclophosphamide] here?
The value was 3 h.

And the Cell number ([4]; 0.5 mM CPA for 0.5 h)?
Its Cell number is 12 ± 1 ×10^6.

And the Cell number ([4]; 0.5 mM CPA for 1.5 h)?
Its Cell number is 24.1 ± 0.6 ×10^6.

And the Cell number ([4]; 0.5 mM CPA for 3 h)?
The Cell number was 0.2 ×10^6.

What about the Cell number ([4]; 0.5 mM CPA for 6 h) of the same compound?
Its Cell number is 0.1 ×10^6.

And the Cell number ([4]; 0.5 mM CPA for 10 h)?
Its Cell number is 0.1 ×10^6.

What about the Cell number ([4]; 0.5 mM CPA for 24 h) of the same compound?
The Cell number was 0.1 ×10^6.

What about the Cell number ([4]; 0.5 mM CPA for 32 h) of the same compound?
The Cell number was 0 ×10^6.

And the Cell number ([4]; 0.5 mM CPA for 48 h)?
Its Cell number is 0.1 ×10^6.

And the Cell number ([4]; 0.5 mM CPA for 72 h)?
The Cell number was 0 ×10^6.

What about the Cell number ([4]; 0.5 mM CPA for 96 h) of the same compound?
The Cell number was 0 ×10^6.

What about the “Proliferation of treated cells after replating” value ([4]; 0.5 mM, trypsinization and replating) of the same compound?
Its value is “completely inhibited”.

What about the “Trypsinization and replating assay, cell count” value [4, 13] of the same compound?
The value was 0.11±0.01.

And the Cell number ([5]; 0.5 mM CPA for 0.5 h)?
The Cell number was 11.6 ± 0.4 ×10^6.

What about the Cell number ([5]; 0.5 mM CPA for 1.5 h) of the same compound?
The Cell number was 21.7 ± 0.6 ×10^6.

And the Cell number ([5]; 0.5 mM CPA for 3 h)?
The Cell number was 13.1 ± 1.6 ×10^6.

And the Cell number ([5]; 0.5 mM CPA for 6 h)?
The Cell number was 12.9 ± 0.7 ×10^6.

What about the Cell number ([5]; 0.5 mM CPA for 10 h) of the same compound?
The Cell number was 20.4 ± 0.6 ×10^6.

And the Cell number ([5]; 0.5 mM CPA for 24 h)?
Its Cell number is 17 ± 0.7 ×10^6.

And the Cell number ([5]; 0.5 mM CPA for 32 h)?
Its Cell number is 15.4 ± 0.5 ×10^6.

What about the Cell number ([5]; 0.5 mM CPA for 48 h) of the same compound?
Its Cell number is 18.3 ± 1 ×10^6.

What about the Cell number ([5]; 0.5 mM CPA for 72 h) of the same compound?
Its Cell number is 20.2 ×10^6.

What about the Cell number ([5]; 0.5 mM CPA for 96 h) of the same compound?
The Cell number was 28.8 ± 0.8 ×10^6.

And the “Trypsinization and replating assay, cell count” value [5, 13]?
The value was 21.48±0.38.

What about the inhibition at 500 µM [6] of the same compound?
The inhibition at 500 µM was 30%.

And the “Sensitivity to cyclophosphamide cytotoxicity” value [7]?
The value was “highly sensitive”.

What about the Sensitivity to cyclophosphamide [8] of the same compound?
Its Sensitivity to cyclophosphamide is “insensitive to high concentrations”.

And the Sensitivity to cyclophosphamide [9]?
Its Sensitivity to cyclophosphamide is “insensitive to high concentrations”.

And the Growth inhibition ([10]; 0.5 mM CPA, 10 days)?
Its Growth inhibition is “complete growth inhibition”.

What about the “Effect on cell proliferation” value ([10]; 0.5 mM, four days) of the same compound?
The value was “complete inhibition of cell proliferation”.

What about the “Cell proliferation assay, number of cells” value ([10]; Table V panel A, 0.5 mM, four days) of the same compound?
Its value is 1.15±0.11 ×10^6.

And the IC50 [11]?
The IC50 was 27 µM.

What about the Colony numbers ([12]; CM after 0.5 h of 0.5 mM CPA) of the same compound?
Its Colony numbers is 247 ± 3.

And the Colony numbers ([12]; CM after 1.5 h of 0.5 mM CPA)?
Its Colony numbers is 256 ± 7.

What about the Colony numbers ([12]; CM after 3 h of 0.5 mM CPA) of the same compound?
Its Colony numbers is 257 ± 1.

What about the Colony numbers ([12]; CM after 6 h of 0.5 mM CPA) of the same compound?
The Colony numbers was 260 ± 4.

And the Colony numbers ([12]; CM after 10 h of 0.5 mM CPA)?
Its Colony numbers is 245 ± 5.

And the Colony numbers ([12]; CM after 24 h of 0.5 mM CPA)?
Its Colony numbers is 255 ± 14.

And the Colony numbers ([12]; CM after 32 h of 0.5 mM CPA)?
The Colony numbers was 240 ± 2.

What about the Colony numbers ([12]; CM after 48 h of 0.5 mM CPA) of the same compound?
The Colony numbers was 245 ± 6.

And the Colony numbers ([12]; CM after 72 h of 0.5 mM CPA)?
The Colony numbers was 260 ± 5.

And the Colony numbers ([12]; CM after 96 h of 0.5 mM CPA)?
Its Colony numbers is 260 ± 9.

And the “Secretion effect, C6 colony number” value ([12]; Table V panel C, CM from treated C6 cultures)?
The value was 271±14.2.
